Measured values from the NIST ThermoML archive (doi:10.1016/j.tca.2016.12.008).
Where “and” joins values, the source holds several entries; their conditions need not be identical. Equal entries are not always repeated. Numbers after ± are expanded uncertainties.

Assays:
[1] = Molar enthalpy of transition or fusion; conditions: Crystal; DSC
[2] = for Normal melting temperature: DTA

Molar enthalpy of transition or fusion [1] | mass density ([2]; 293 K, 101.33 kPa, Crystal, X-ray diffraction) | Normal melting temperature ([2]; Crystal) | Glass transition temperature ([2]; Glass, DSC) | Normal melting temperature ([2]; Crystal 1) | Triple point temperature ([2]; Crystal 2, DSC) | Structure (SMILES)
6.81 ± 0.191 kcal/mol | 1173 ± 6 kg/m3 | 156.20 ± 0.9 °C and 155.50 ± 0.5 °C | 25.00 ± 2 °C |  |  | CC(C)(C)C(=O)Oc1ccc2ccccc2c1-c1c(OC(=O)C(C)(C)C)ccc2ccccc12
7.46 ± 0.215 kcal/mol |  | 215.40 ± 0.5 °C |  |  |  | Oc1ccc2ccccc2c1-c1c(O)ccc2ccccc12 [(1,1'-binaphthalene)-2,2'-diol]
 |  |  |  | 123.80 ± 0.5 °C | 389.55 ± 1.3 K | CC(C)(C)C(=O)Oc1ccc2ccccc2c1-c1c(OC(=O)C(C)(C)C)ccc2ccccc12 [(1,1'-binaphthalene)-2,2'-diyl bis(2,2-dimethylpropanoate)]
7.39 ± 0.167 kcal/mol |  | 209.20 ± 0.5 °C and 208.00 ± 0.5 °C |  |  |  | Oc1ccc2ccccc2c1-c1c(O)ccc2ccccc12 [(S)-(1,1'-binaphthalene)-2,2'-diol]
